According to patent US4962020A, “DNA sequencing” (President and Fellows of Harvard College, priority 1988, dated 1990):
Where two headings read alike, the source gives them in different places.

Legend:
DNA polymerase = test: ddNTP versus dNTP incorporation (discrimination) in primer extension / sequencing reaction with metal ions; type: biochemical; conditions: for effect of cation on DNA synthesis / sequencing reaction: monovalent and divalent cations tested
Description: In order to determine whether any particular DNA polymerase, in combination with any particular chain terminating agent, or other component of a sequencing reaction mixture, is useful in this invention, a standard sequencing reaction is performed, as described below and shown in the drawings, and the extent of band formation, and the uniformity of nearby bands in a sequencing gel, reviewed. […] Adjacent band uniformity within a two-fold or less range is useful in this invention, preferably the uniformity is within a 1.0-1.5 fold range. Similarly, determination of optimum cation concentration, or of other potential cations useful in the invention, is determined by use of this sequencing reaction under various conditions. For example, cations are tested in ranges from 0.005-100 mM. An example of such an experiment follows:
DNA synthesis is measured using a 17-mer primer of sequence 5'-[…]-3' (New England Biolabs catalog number 1211) that has been labeled with ^32 P at its 5' end and annealed to single-stranded mGPl-2 DNA. Tabor et al., proc. Nat. Acad. Sci. USA 84:4767 (1987) and Tabor et al., J. Biol. Chem. 262:16212 (1987). Any other template is equally useful in this reaction. This primer-template is used in a reaction that contains a DNA polymerase in the presence of a range of concentrations of a metal ion. Reactions are carried out in the presence of a given concentration of all 4 deoxynucleotides (dNTPS, 20-200 μM), and over a range of concentrations of one dideoxynucleotide (ddNTP, in this example, ddGTP from 10-500 μM). The DNA products are then analyzed by polyacrylamide gel electrophoresis, where DNA synthesis is detected as extensions of the primer producing bands, representing extensions of various molecular weights, in the gel.
In a specific example, each reaction mixture (10μl) contained 0.1 μg^32 P-primer-template, 40 mM Tris-HCl pH 7.5, 5 mM dithiothreitol (DTT) 5μM to 20mM metal ion, 10 to 500 μM 4dNTPs, 1 to 500 μM ddNTPs, and 2 units of a DNA polymerase. Incubation was at 37° C. for 15 min. The reaction was stopped by addition of 10μl of 90% formamide, 50 mM EDTA, and 0.1% bromophenol blue.
Electrophoresis was at 2000 volts for 2 hours. The gel was fixed in 50% methanol, 10% acetic acid for 30 min., dried, and exposed, for autoradiography. Band intensity in each lane of the resulting film was determined by scanning each lane with a densitometer. The densitometer used was a double-beam recording instrument, model MkIIIC (Joyce, Loebl & Co., Ltd., Gateshead-on-tyne, II, England). Any suitable densitometer instrument for scanning gels will also work. Alternatively, the uniformity of the resulting bands can be determined by scanning the DNA products as they are electrophoresed within the gel.
The ability to incorporate a given ddNTP compared to the corresponding dNTP for any one enzyme is measured as the ratio of ddNTP to dNTP necessary to allow DNA synthesis that terminates in a fixed range, detected as producing bands of no greater than a fixed molecular weight. That is, the bands produced in the reaction end within a specified range in the sequencing gel. Thus, if one enzyme discriminates 1000-fold greater against a given ddNTP compared to another enzyme, a 1000-fold higher ratio of ddNTP to dNTP will be necessary to obtain bands terminating at the corresponding sites in the same range of the gel.

[1] = molecular target: genetically modified T7 DNA polymerase (ΔLys118-Arg145) (Escherichia phage T7, UniProt P00581, DEL118-145)
Chain of genetically modified T7 DNA polymerase (ΔLys118-Arg145) (P00581 with tags, fused parts or gaps DEL118-145): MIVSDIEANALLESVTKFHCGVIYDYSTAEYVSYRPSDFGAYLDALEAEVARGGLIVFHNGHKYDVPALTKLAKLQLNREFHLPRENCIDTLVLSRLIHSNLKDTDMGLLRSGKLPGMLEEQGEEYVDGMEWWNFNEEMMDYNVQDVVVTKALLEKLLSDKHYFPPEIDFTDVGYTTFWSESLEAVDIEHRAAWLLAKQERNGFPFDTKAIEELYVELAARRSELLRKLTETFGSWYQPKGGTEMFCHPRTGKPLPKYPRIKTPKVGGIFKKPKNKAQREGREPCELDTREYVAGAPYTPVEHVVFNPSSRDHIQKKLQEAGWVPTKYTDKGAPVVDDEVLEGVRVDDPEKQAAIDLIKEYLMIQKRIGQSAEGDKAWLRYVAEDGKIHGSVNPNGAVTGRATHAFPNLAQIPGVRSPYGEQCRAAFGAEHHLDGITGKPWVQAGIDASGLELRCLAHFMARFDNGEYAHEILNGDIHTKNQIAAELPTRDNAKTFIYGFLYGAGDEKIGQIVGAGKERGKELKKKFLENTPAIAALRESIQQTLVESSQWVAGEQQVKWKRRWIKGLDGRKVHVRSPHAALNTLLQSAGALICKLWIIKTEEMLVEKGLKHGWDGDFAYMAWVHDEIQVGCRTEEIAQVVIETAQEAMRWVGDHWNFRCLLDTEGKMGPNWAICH

[2] = molecular target: T1, genetically modified T7 DNA polymerase (Escherichia phage T7, UniProt P00581, DEL118-145); type: biochemical
T1 construct: made in house; host or cells: E. coli strain K38/pTrx-3/pGP5-8
T1 sequence (P00581 other isoform, or with tags, fused parts or gaps DEL118-145): as the sequence (P00581 with tags, fused parts or gaps DEL118-145) above
T1 sequence (P0AA25 2-109, stated change not applied, further chain): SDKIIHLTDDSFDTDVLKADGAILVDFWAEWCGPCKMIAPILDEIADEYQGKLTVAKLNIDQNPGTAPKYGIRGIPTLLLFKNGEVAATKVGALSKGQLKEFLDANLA

`[Cu]` [Cu] was tested, and the “effect of cation on DNA synthesis / sequencing reaction” value (DNA polymerase) was “no detectable effect, or are detrimental to DNA synthesis”.
“Taq polymerase: DNA polymerase used for sequencing” was tested, and the “lessening of the requirement for chain terminating agents (dideoxynucleosides)” value (DNA polymerase; in the presence of manganese or iron ions) was ~1000 fold.
With `O=C([O-])CC(C(=O)[O-])C(O)C(=O)[O-].[Na+].[Na+].[Na+]` (stereo not drawn) [isocitrate, sodium isocitrate] the optimal isocitrate concentration [1] was 40 mM, the “effect of isocitrate on polymerase activity” value ([1]; 10 mM magnesium, any amount of isocitrate, FIG. 9) was “inhibitory effect on polymerase” and the “stimulation of polymerase activity” value ([1]; t7 dna polymerase, 0.5 h, 40000 µM, pH 7.5) was 4 fold.
With `[Ca]` [Ca] the “effect of cation on DNA synthesis / sequencing reaction” value (DNA polymerase) was “no detectable effect, or are detrimental to DNA synthesis”.
`[Ba]` [Ba] was tested, and the “effect of cation on DNA synthesis / sequencing reaction” value (DNA polymerase) was “no detectable effect, or are detrimental to DNA synthesis”.
For `[Na]` [Na], the “effect of cation on DNA synthesis / sequencing reaction” value (DNA polymerase) was “no detectable effect, or are detrimental to DNA synthesis”.
In the case of `[Zn]` [Zn], the “effect of cation on DNA synthesis / sequencing reaction” value (DNA polymerase) is reported as “no detectable effect, or are detrimental to DNA synthesis”.
With `[Cr]` [Cr] the “effect of cation on DNA synthesis / sequencing reaction” value (DNA polymerase) was “no detectable effect, or are detrimental to DNA synthesis”.
In the case of `[Si]` [Si], the “effect of cation on DNA synthesis / sequencing reaction” value (DNA polymerase) is reported as “no detectable effect, or are detrimental to DNA synthesis”.
For `[Mn+2]` [manganese], the “difference in band intensity between bases in the triplets TCT, AAG, GCA, CCT” value ([2]; Example 1, manganese in sequencing buffer, densitometer) was “at most 20%”, the “variation of nearby bands and peaks” value ([2]; all four ddNTPs at 0.75 μM each, manganese, FIG. 5) was “no more than 1.5 fold” and the “optimum ion concentration in a sequencing reaction (polymerase activity)” value [1] was 1 mM. The optimum manganese concentration [1] was 5 to 20 mM.
For `[Mg+2]` [magnesium], the “intensity of underlined bases in triplets versus adjacent bases” value ([2]; Example 1 sample run with magnesium in place of manganese) was 2-5 fold, the “variation of nearby band intensity” value ([2]; all four ddNTPs at equal concentration, magnesium, FIG. 6) was “varies greatly” and the “variation of nearby band intensity (peak height)” value ([2]; ddGTP only, magnesium instead of manganese, FIG. 3) was ≤ 10 fold. The “optimum ion concentration in a sequencing reaction (polymerase activity)” value ([1]; absence of a chelator, FIG. 8) was 20 mM.
With `[Co]` [Co] the “effect of cation on DNA synthesis / sequencing reaction” value (DNA polymerase) was “no detectable effect, or are detrimental to DNA synthesis”.
In the case of `[Ni]` [Ni], the “effect of cation on DNA synthesis / sequencing reaction” value (DNA polymerase) is reported as “no detectable effect, or are detrimental to DNA synthesis”.
For `[Be]` [Be], the “effect of cation on DNA synthesis / sequencing reaction” value (DNA polymerase) was “no detectable effect, or are detrimental to DNA synthesis”.
With `O=c1[nH]cnc2c1ncn2[C@H]1CC[C@@H](COP(=O)(O)OP(=O)(O)OP(=O)(O)O)O1` [ddITP, dideoxy ITP, reference compound] the “discrimination against ddITP compared to ddGTP” value (DNA polymerase; in the presence of Mn) was 10 fold.
In the case of `[Ce]` [Ce], the “effect of cation on DNA synthesis / sequencing reaction” value (DNA polymerase) is reported as “no detectable effect, or are detrimental to DNA synthesis”.
